Laboratory results reported in ChEMBL document CHEMBL5126559, “Insights into the structure-activity relationship of a type III secretion system inhibitor, aurodox” (Bioorg Med Chem Lett, 2022).
≈ marks a conversion by molar mass, not a printed value.

Tests used:
[1] = Inhibition of bacterial type III secretion system in enteropathogenic Escherichia coli
Escherichia coli = test: Antibacterial activity against enteropathogenic Escherichia coli; type: functional, organism-based

IC50 [1] [µg/mL] | IC50 (Escherichia coli) [µg/mL] | SMILES
1.42 (≈ 1.75 µM) | 32.8 (≈ 40.4 µM) | C/C=C\C=C\[C@@H]1O[C@](O)([C@H](CC)C(=O)NC/C=C/C=C(\C)[C@@H](OC)[C@@H](C)[C@@H]2O[C@H](/C=C/C=C/C=C(\C)C(=O)c3c(O)ccn(C)c3=O)[C@H](O)[C@@H]2O)[C@H](O)[C@H](O)C1(C)C
> 100 | > 100 | CO[C@H](/C(C)=C/C=C/CN)[C@@H](C)[C@@H]1O[C@H](/C=C/C=C/C=C(\C)C(=O)c2c(O)ccn(C)c2=O)[C@H](O)[C@@H]1O
> 100 | > 100 | C/C=C\C=C\[C@@H]1O[C@](O)([C@H](CC)C(=O)NC/C=C/C=C(\C)[C@@H](OC)[C@@H](C)[C@@H]2O[C@H](/C=C/C=C/C=C(\C)C(=O)c3c(O)ccn(C)c3=O)[C@@H]3OC(=O)O[C@@H]32)[C@@H]2OC(=O)O[C@@H]2C1(C)C
4.82 (≈ 5.84 µM) | > 100 | C/C=C\C=C\[C@@H]1O[C@](O)([C@H](CC)C(=O)NC/C=C/C=C(\C)[C@@H](OC)[C@@H](C)[C@@H]2O[C@H](/C=C/C=C/C=C(\C)C(=O)c3c(OC)ccn(C)c3=O)[C@H](O)[C@@H]2O)[C@H](O)[C@H](O)C1(C)C
2.29 | 53.9 | C/C=C\C=C\[C@@H]1O[C@](O)([C@H](CC)C(=O)NC/C=C/C=C(\C)[C@@H](OC)[C@@H](C)[C@@H]2O[C@H](/C=C/C=C/C=C(\C)C(=O)c3c([O-])ccn(C)c3=O)[C@H](O)[C@@H]2O)[C@H](O)[C@H](O)C1(C)C.[Na+]
> 100 | > 100 | C/C=C\C=C\[C@@H]1O[C@]2(O)C(CC)C(=O)O[C@@H]2[C@H](O)C1(C)C (some centres not stated)
1.75 | 30.6 | C/C=C\C=C\[C@@H]1O[C@](O)([C@H](CC)C(=O)NC/C=C/C=C(\C)[C@@H](OC)[C@@H](C)[C@@H]2O[C@H](/C=C/C=C/C=C(\C)C(=O)c3c(O)ccn(C)c3=O)[C@H](O)[C@@H]2O)[C@H](O)[C@H](O)C1(C)C.[MgH2]
1.45 (≈ 1.58 µM) | > 100 | C/C=C\C=C\[C@@H]1O[C@](O)([C@H](CC)C(=O)NC/C=C/C=C(\C)[C@@H](OC)[C@@H](C)[C@@H]2O[C@H](/C=C/C=C/C=C(\C)C(=O)c3c(OC(=O)c4ccccc4)ccn(C)c3=O)[C@H](O)[C@@H]2O)[C@H](O)[C@H](O)C1(C)C
19 (≈ 19.7 µM) | > 100 | C/C=C\C=C\[C@@H]1O[C@](O)([C@H](CC)C(=O)NC/C=C/C=C(\C)[C@@H](OC)[C@@H](C)[C@@H]2O[C@H](/C=C/C=C/C=C(\C)C(=O)c3c(OS(=O)(=O)c4ccc(C)cc4)ccn(C)c3=O)[C@H](O)[C@@H]2O)[C@H](O)[C@H](O)C1(C)C
> 100 | > 100 | C/C=C\C=C\[C@@H]1O[C@](O)([C@H](CC)C(=O)NC/C=C/C=C(\C)[C@@H](OC)[C@@H](C)[C@@H]2O[C@H](/C=C/C=C/C=C(\C)C(=O)c3c(O)ccn(C)c3=O)[C@@H]3OC(=O)O[C@@H]32)[C@H](O)[C@H](O)C1(C)C
1.19 (≈ 1.37 µM) | 31.1 (≈ 35.9 µM) | C/C=C\C=C\[C@@H]1O[C@](O)([C@H](CC)C(=O)NC/C=C/C=C(\C)[C@@H](OC)[C@@H](C)[C@@H]2O[C@H](/C=C/C=C/C=C(\C)C(=O)c3c(OC(=O)CC)ccn(C)c3=O)[C@H](O)[C@@H]2O)[C@H](O)[C@H](O)C1(C)C
4.16 (≈ 4.89 µM) | > 100 | C=CCOc1ccn(C)c(=O)c1C(=O)/C(C)=C/C=C/C=C/[C@H]1O[C@@H]([C@H](C)[C@H](OC)/C(C)=C/C=C/CNC(=O)[C@@H](CC)[C@@]2(O)O[C@@H](/C=C/C=C\C)C(C)(C)[C@@H](O)[C@H]2O)[C@@H](O)[C@H]1O
1.43 (≈ 1.68 µM) | 36.1 (≈ 42.3 µM) | C/C=C\C=C\[C@@H]1O[C@](O)([C@H](CC)C(=O)NC/C=C/C=C(\C)[C@@H](OC)[C@@H](C)[C@@H]2O[C@H](/C=C/C=C/C=C(\C)C(=O)c3c(OC(C)=O)ccn(C)c3=O)[C@H](O)[C@@H]2O)[C@H](O)[C@H](O)C1(C)C
4.65 (≈ 5.23 µM) | > 100 | C/C=C\C=C\[C@@H]1O[C@](O)([C@H](CC)C(=O)NC/C=C/C=C(\C)[C@@H](OC)[C@@H](C)[C@@H]2O[C@H](/C=C/C=C/C=C(\C)C(=O)c3c(OS(C)(=O)=O)ccn(C)c3=O)[C@H](O)[C@@H]2O)[C@H](O)[C@H](O)C1(C)C
2.52 | 49.5 | C/C=C\C=C\[C@@H]1O[C@](O)([C@H](CC)C(=O)NC/C=C/C=C(\C)[C@@H](OC)[C@@H](C)[C@@H]2O[C@H](/C=C/C=C/C=C(\C)C(=O)c3c([O-])ccn(C)c3=O)[C@H](O)[C@@H]2O)[C@H](O)[C@H](O)C1(C)C.[Li+]
10.4 (≈ 11.8 µM) | > 100 | C/C=C\C=C\[C@@H]1O[C@](O)([C@H](CC)C(=O)NC/C=C/C=C(\C)[C@@H](OC)[C@@H](C)[C@@H]2O[C@H](/C=C/C=C/C=C(\C)C(=O)c3c(OCOC(N)=O)ccn(C)c3=O)[C@H](O)[C@@H]2O)[C@H](O)[C@H](O)C1(C)C
